Measured values reported in US11845746B1 (priority 2023, dated 2023).

Question: With CCOC(=O)c1cc(C(=O)c2ccc(C)cc2)n2c1ccc1cc(C)ccc12 as the compound, how does the melting point read?
Answer: 155 to 156 °C

Question: Which melting point does the source give for CCOC(=O)c1cc(C(=O)c2ccccc2)n2c1ccc1cc(C)ccc12 here?
Answer: 139 to 140 °C

Question: Which melting point does the source give for CCOC(=O)c1cc(C(=O)c2ccc(F)cc2)n2c1ccc1cc(C)ccc12 here?
Answer: 163 to 164 °C

Question: For CCOC(=O)c1cc(C(=O)c2ccccc2[N+](=O)[O-])n2c1ccc1cc(C)ccc12 [Compound 4d, Ethyl 7-methyl-1-(2-nitrobenzoyl)pyrrolo[1,2-a]quinoline-3-carboxylate], which melting point is on record?
Answer: 174 to 175 °C

Question: For CCOC(=O)c1cc(C(=O)c2ccc(Br)cc2)n2c1ccc1cc(C)ccc12 [Compound 4e, Ethyl 1-(4-bromobenzoyl)-7-methylpyrrolo[1,2-a]quinoline-3-carboxylate], which melting point is on record?
Answer: 180 to 181 °C

Question: For CCOC(=O)c1cc(C(=O)c2cc(C(F)(F)F)cc(C(F)(F)F)c2)n2c1ccc1cc(C)ccc12 [Compound 4f, Ethyl 1-(3,5-bis(trifluoromethyl)benzoyl)-7-methylpyrrolo[1,2-a]quinoline-3-carboxylate], which melting point is on record?
Answer: 223 to 224 °C
